# Like-named read-outs stand apart in the source and are kept apart here.
# What was measured:
# [1] = tested on: suspension-cultured corn cells; conditions: Balsevich et al 1994; cited from earlier work
# [2] = background; cited from earlier work
# [3] = tested on: suspension-cultured corn cells (var. Black Mexican Sweet); assay: Growth inhibition of suspension-cultured corn cells; type: cell-based, corn (maize); conditions: four days
# excised wheat embryos = assay: Wheat embryo germination inhibition; type: in vivo, Triticum aestivum L. cv. Clark's Cream; conditions: in vivo
# Method: Grains of soft white wheat (Triticum aestivum L. cv. Clark's Cream) were used. For bioassay, embryos with some adhering endosperm and pericarp attached were cut from the grains with a razor blade. Analogs were prepared by dissolving into a minimal amount of DMSO to prepare a 0.1 M solution, and then diluted with […], pH 5.8, to 0.01, 0.1, 1, 10 and 100 μM. For each analog concentration six replicate germination assays were conducted on 10 embryos each at 30° C. Embryos were incubated in Petri dishes (100×15 mm) containing 6 ml solution.
# [4] = tested on: ABA-responsive cor6.6 promoter; assay: ABA-inducible gene expression (GUS activity) in transgenic tobacco seedlings containing Pcor6.6-GUS; type: in vivo, transgenic tobacco (promoter from Arabidopsis thaliana); conditions: 24 hours (FIG. 15)
# Source text: The results shown are an average of duplicate assays on samples containing 34 seedlings.
# The results shown are an average of duplicate samples containing cotyledons from 34 seedlings.
# α-amylase activity = conditions: Nakano et al. 1995; cited from earlier work
# lettuce seed = conditions: Nakano et al. 1995; cited from earlier work
# [5] = tested on: stomatal opening of spiderwort; conditions: Nakano et al. 1995, cited from earlier work
# rice seedling leaves = conditions: Nakano et al. 1995; cited from earlier work
# [6] = tested on: Interior spruce seedlings; assay: Drought avoidance of transplanted spruce seedlings; type: in vivo
# Source text: (§1) The ABA analog was applied as a spray-root drench that stimulated application through a nursery irrigation system. Seedlings with intact root-soil plugs were placed in a container, and ABA analog treatments were applied as a top drench. Treated seedlings were kept in the large container where the treatment flow-through was allowed to be re-absorbed into the plugs over a two day period. This ensured that all of the treatment was taken up by the root plugs and was available to seedlings. During testing, root-soil plugs were kept intact, enabling ABA analog treatments to be retained in close contact with the root system.
# (§2) For this testing program, ABA analog #365 was applied at 10^-4, […] and 10^-3 M concentrations. Analogs were dissolved in an acetone solution (@ 1%) to prepare ABA analog treatments. In addition, there was a control treatment of acetone only @ 1%. The analog treatments were applied one time, two days before the start of experimental measurements. Each seedling received approximately 20 ml of either an analog or a control solution.
# Just after treatment application, seedlings (n=75) were put through a rapid eight to fifteen day drought. Seedlings were watered to saturation during ABA analog application. After 24 to 48 hours, when all of the ABA analog solution was absorbed by the seedling root plug, root systems were enclosed in a plastic bag and placed in a darkened chamber with the shoot systems exposed to the above described controlled environment conditions. Seedlings were allowed to dry out through shoot transpiration. Gas exchange parameters (Pn, and gwv) of seedlings (n=8) from each treatment were measured during each daylight period. At each gas exchange measurement time, seedlings were measured with a pressure chamber to determine .psi., Changes in gas exchange parameters and seedling water balance were determined over time.
# A study was conducted to determine how the ABA analog influenced seedling response to potentially lethal soil drought. It was hypothesized that ABA analogs limit water use and delay deleterious physiological conditions in seedlings under limited soil water availability. The ABA analog would allow seedlings to avoid a potentially lethal drought stress to survive and have normal morphological development.
# Just after treatment application, seedlings (n=75) were put through a rapid drought. Over the drought, seedlings were measured with a pressure chamber to determine .psi..
# [7] = tested on: Interior spruce seedlings; assay: Growth of transplanted spruce seedlings; type: in vivo
# [8] = tested on: Interior spruce seedlings; assay: Gas exchange of spruce seedlings; type: in vivo; conditions: optimum conditions; longer periods at higher concentrations (FIGS. 19-21)
# Source text: as §1
# as §2, with “Each seedling received approximately 20 ml of either an analog or a control solution.” left out
# Gas exchange parameters (net photosynthesis (Pn), needle conductance (gwv), water use efficiency-not reported) were determined on the seedlings treated with the ABA analog at each concentration (n=8). […] Gas exchange parameters were assessed 9 times across the first 20 days of the measurement period. Thereafter, gas exchange parameters were periodically assessed at 5 times from day 20 until the 52nd day of the measurement period.
compound,measurement,setting,value
"CC(=C/C(=O)O)/C=C/[C@]1(O)[C@@]2(C)CO[C@]1(C)CC(=O)C2 [Phaseic acid, phaseic acid]",shift (elevation) in pH of the medium (literature),[1],not produced by PA
same,activity in most assays,[2],little or no activity in most assays
CC[C@@]1(C)CC(=O)C=C(C)[C@]1(O)/C=C/C(C)=C\C(=O)O [(+)-8'-methyl ABA],growth inhibition activity (comparison in words),[3],comparable to that produced by (+)-ABA
same,"germination inhibitory activity, wheat embryos (in words)",excised wheat embryos,more active than (+)-ABA
same,fold weaker than ABA as inducer of GUS,[4],about 3 fold
same,blocking of GA3 stimulated α-amylase activity,α-amylase activity,nearly as active as (+)-ABA
same,lettuce seed germination inhibition,lettuce seed,more active than (+)-ABA
same,activity in stomatal opening,[5],more active than (+)-ABA
same,activity in stomatal opening,[5]; listed as 8'-methyl analog,only slightly weaker than ABA
same,activity in elongation of rice seedling leaves,rice seedling leaves,more active than (+)-ABA
Methyl 8'-methylene ABA [PBI-365],"drought avoidance capability, dependence on treatment concentration",[6]; FIG. 17,improved with higher treatment concentrations
same,needle conductance,[6]; drought conditions,reduction in needle conductance
same,seedling water balance,[6]; drought conditions,improved seedling water balance under drought conditions
same,drought avoidance capability,[6]; range of drought conditions,excellent drought avoidance capability
same,effect on seedling growth,[7]; moderate and severe drought conditions,no definitive effect on seedling growth
same,effect on seedling growth,[7]; near lethal drought conditions,positive influence on growth
same,long term effects on growth,[7]; optimum soil moisture conditions (FIG. 18),no long term negative effects on growth
same,duration of reduction in gas exchange capability,[8],one to three
